We go through 14 compounds from US7851492B2, “ERG channel openers for the treatment of cardiac arrhythmias” (Neurosearch A/S, priority 2003, dated 2010).

For one data set, the system named is native cardiac myocytes. In words: Modulation of action potentials in native cardiac myocytes (patch clamp, current clamp mode). The data set is classed as cell-based, guinea pig. The procedure:
In this example the activity on native cardiac myocytes from guinea pigs of a compound representative of the invention, 1,3-Bis-(2-hydroxy-5-trifluoromethyl-phenyl)-urea (Compound C), obtained as described in WO 2002/064128, is determined.
The membrane potential of native cardiomyocytes was determined using the patch clamp technique in current clamp mode. The membrane potential was adjusted to approximately −80 mV before start of experiments. Cells were challenged by 20 repetitive rounds of current applications. A single round of application was as follows: Action potentials were evoked by applying a single current pulse of 1 nA lasting from 5-15 ms. The single pulse was followed by 30 repetitive pulses lasting 1-5 ms and with a current amplitude of 100-700 pA. The repetitive pulses were applied at the end of the evoked action potential. These experiments were conducted in the presence or absence of Compound C.
Native cardiomyocytes responded to the described voltage protocol by eliciting an actionpotential.
(In patch-clamp work, channel activity is measured electrically.)

The next data set has as its system awake guinea pigs. Put plainly: Awake guinea-pig telemetry model: QT intervals in electrocardiograms. Type of data set: in vivo. The note with it: 50 mg/kg IV. As to the method:
Compounds were dosed IV, and ECG's and heart rate were measured. QT intervals were corrected (QTc) for any change in heart rate.

For data set [1], the target named is T1, HERG1 channel (Homo sapiens, UniProt Q12809).
T1 construct: expressed in transfected cells; host or cells: Xenopus laevis oocytes (transient expression, vector pXOOM)
Put plainly: HERG1 current by 2-electrode voltage clamp in Xenopus laevis oocytes transiently expressing HERG1 channels. Type of data set: cell-based. The procedure: The HERG1 channel is expressed in HEK293 cells. The gene encoding the HERG1 channel was cloned as described by Warmke & Ganetzky, Proc. Natl. Acad. Sci. USA 1994 91 3438-3442.
(§1) To ensure functional expression in HEK293 cells, the HERG1 gene was sub-cloned in the shuttle-vector pXOOM as described by Jespersen et al.; Biotechniques 2002 32 536-540.
The electrical current through the HERG1 channel is measured using 2-electrode voltage clamp technology. HERG1 current is activated by a step protocol.
In brief, this protocol goes from a resting membrane potential of −80 mV (lasting 3 seconds) to a 1 second depolarisation step at +10 mV, followed by a repolarisation step at −60 mV. The protocol is repeated up to 500 times.
Xenopus laevis oocytes transiently expressing HERG1 channels where challenged by a voltage protocol from −80 mV to +10 mV to −60 mV. This protocol was repeated every 7th second until a stable current level was obtained.

Data set [2] has as its target T1, HERG1 channel. In words: HERG1 current by patch clamp with simulated cardiac action potential in HEK293 cells stably expressing HERG1 channels. The data set is classed as cell-based. The procedure:
In this example the HERG1 channel opening activity of a diphenyl urea derivative for use according to the invention, 1-(3-Trifluoromethyl-phenyl)-3-(2-hydroxy-5-chlorophenyl)-urea (Compound A), is determined using mammalian HEK293 cells stably expressing HERG1 channels.
The HERG1 channel is expressed in HEK293 cells. The gene encoding the HERG1 channel was cloned as described by Warmke & Ganetzky; Proc. Natl. Acad. Sci. USA 1994 91 3438-3442.
as §1
Mammalian expression is obtained by stable transfection of the gene construct in HEK293 cells.
The electrical current through the HERG1 channel is measured using patch clamp technology. HERG1 current is activated by simulated cardiac action potentials.
In brief, this protocol goes from a resting membrane potential of −90 mV to a short initial depolarisation step to +30 mV, followed by a ramp ending at 0 mV. This plateau phase is ended by a repolarisation, going from −15 mV to −90 mV in 70 ms, back to the resting membrane potential, as also shown in the voltage protocol in FIG. 1.
Having reached a stable current level, Compound A was added.

Where [3] appears, read: native guinea pig cardiomyocytes, current clamp, Example 3.

The structures appear in SMILES notation.

T1 sequence (Q12809 whole entry): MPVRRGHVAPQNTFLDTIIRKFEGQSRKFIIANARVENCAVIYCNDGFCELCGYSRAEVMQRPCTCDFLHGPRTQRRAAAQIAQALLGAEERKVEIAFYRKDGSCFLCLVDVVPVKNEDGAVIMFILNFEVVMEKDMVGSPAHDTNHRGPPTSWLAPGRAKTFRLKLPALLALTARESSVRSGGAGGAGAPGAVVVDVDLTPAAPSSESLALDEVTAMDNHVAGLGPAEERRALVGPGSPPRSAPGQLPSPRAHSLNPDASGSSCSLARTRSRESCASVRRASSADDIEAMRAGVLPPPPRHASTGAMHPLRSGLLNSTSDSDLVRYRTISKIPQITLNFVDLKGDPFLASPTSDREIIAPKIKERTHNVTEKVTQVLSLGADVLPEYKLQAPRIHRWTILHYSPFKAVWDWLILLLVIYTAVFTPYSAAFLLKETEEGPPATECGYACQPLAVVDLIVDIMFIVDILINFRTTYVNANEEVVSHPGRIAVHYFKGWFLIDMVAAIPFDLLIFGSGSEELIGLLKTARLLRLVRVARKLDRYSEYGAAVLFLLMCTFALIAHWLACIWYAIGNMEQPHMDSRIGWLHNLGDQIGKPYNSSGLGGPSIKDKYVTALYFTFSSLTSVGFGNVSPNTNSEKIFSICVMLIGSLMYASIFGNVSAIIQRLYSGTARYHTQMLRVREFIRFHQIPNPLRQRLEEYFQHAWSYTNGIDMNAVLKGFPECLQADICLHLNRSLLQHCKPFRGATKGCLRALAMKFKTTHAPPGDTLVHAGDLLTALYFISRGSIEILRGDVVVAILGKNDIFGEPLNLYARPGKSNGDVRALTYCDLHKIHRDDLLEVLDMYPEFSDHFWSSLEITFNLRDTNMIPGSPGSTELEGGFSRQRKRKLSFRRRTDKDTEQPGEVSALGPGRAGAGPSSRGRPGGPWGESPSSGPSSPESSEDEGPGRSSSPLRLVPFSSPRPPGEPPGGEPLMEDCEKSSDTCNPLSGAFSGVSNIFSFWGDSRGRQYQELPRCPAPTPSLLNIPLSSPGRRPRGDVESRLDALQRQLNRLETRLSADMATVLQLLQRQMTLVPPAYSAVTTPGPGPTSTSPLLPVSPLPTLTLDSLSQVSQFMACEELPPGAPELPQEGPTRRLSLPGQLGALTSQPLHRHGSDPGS

The melting point is the temperature, or range, at which the solid turns liquid. In turn, `O=C(Nc1cc(C(F)(F)F)ccc1O)Nc1ccccc1C(F)(F)F` [Compound 1, 1-(2-Hydroxy-5-trifluoromethyl-phenyl)-3-(2-trifluoromethyl-phenyl)-urea] had a melting point of 158 to 159 °C.

Turning to `O=C(Nc1cc(C(F)(F)F)ccc1O)Nc1cc(C(F)(F)F)ccc1O` [Compound C, 1,3-Bis-(2-hydroxy-5-trifluoromethyl-phenyl)-urea], in the data set with native cardiac myocytes (setting [3]), the “cardiac action potential duration” value was “shorting of the cardiac action potential” and the “membrane potential in the presence of the 30 repetitive pulses” value is “stable membrane potential”. Further, in the data set with native cardiac myocytes (of 20 rounds of current applications), the “rounds of current applications in which stabilisation was observed” value is listed as 20 rounds.

`CN(C)C(=O)CCc1ccc(NC(=O)Nc2ccc(Cl)c(C(F)(F)F)c2)c(-c2nnn[nH]2)c1` [Compound 11, 3-[4-[3-(4-Chloro-3-trifluoromethyl-phenyl)-ureido]-3-(1H-tetrazol-5-yl)-phenyl]-N,N-dimethyl-propionamide]: the melting point was in the range of 184.5 to 189.3 °C.

As to `O=C(Nc1ncccn1)Nc1ccccc1C(F)(F)F` [Compound 2, 1-Pyrimidin-2-yl-3-(2-trifluoromethyl-phenyl)-urea], the melting point lay within 224 to 225 °C.

In turn, `O=C(Nc1cc(Cl)cc(Cl)c1)Nc1ccc(Cl)cc1-c1nnn[nH]1` [Compound 12, 1-[4-Chloro-2-(1H-tetrazol-5-yl)-phenyl]-3-(3,5-dichloro-phenyl)-urea] registered a melting point of 234 to 236 °C.

`COc1ccc(NC(=O)Nc2cccc(C(F)(F)F)c2)c(O)n1` [Compound 4, 1-(2-Hydroxy-6-methoxy-pyridin-3-yl)-3-(3-trifluoromethyl-phenyl)-urea]: the melting point was in the range of 223 to 224 °C.

Take `O=C(Nc1cccc(C(F)(F)F)c1)Nc1c(C(=O)O)[nH]c(=O)[nH]c1=O` [Compound 7, 2,6-Dioxo-5-[3-(3-trifluoromethyl-phenyl)-ureido]-1,2,3,6-tetrahydro-pyrimidine-4-carboxylic acid]: the melting point is above 300 °C.

Take `O=C(Nc1cccc(C(F)(F)F)c1)Nc1ccc(Br)cc1-c1nnn[nH]1` [Compound B, 1-(3-Trifluoromethyl-phenyl)-3-[2-(1H-tetrazol-5-yl)-4-bromo-phenyl] urea]: the “reduction of the length of the corrected QT interval (QTc) compared to controls” value with awake guinea pigs was found to be 23%.

`O=C(Nc1cccc(C(F)(F)F)c1)Nc1nccnc1C(=O)O` [Compound 8, 3-[3-(3-Trifluoromethyl-phenyl)-ureido]-pyrazine-2-carboxylic acid] displayed a melting point above 300 °C.

As to `O=C(Nc1cc(Cl)ccc1O)Nc1ccccc1C(F)(F)F` [Compound 3, 1-(5-Chloro-2-hydroxy-phenyl)-3-(2-trifluoromethyl-phenyl)-urea], the melting point lay within 183 to 184 °C.

Take `O=C(Nc1ccccc1F)Nc1cc(Cl)ccc1C(=O)O` [Compound 9, 4-Chloro-2-[3-(2-fluoro-phenyl)-ureido]-benzoic acid]: the melting point lay within 195 to 197 °C.

As for `O=C(Nc1ccc(-c2ccccc2)cc1-c1nnn[nH]1)c1cc(C(F)(F)F)cc(C(F)(F)F)c1` [Compound 15, N-[3-(1H-Tetrazol-5-yl)-biphenyl-4-yl]-3,5-bis-trifluoromethyl-benzamide], the melting point is 156 °C (dec.). The HERG1 current entry on HERG1 channel [1] (1-30 μM) is “increase”. Moreover, the “repolarisation current recorded at −60 mV” value on HERG1 channel [1] (voltage protocol −80 mV to +10 mV to −60 mV (FIG. 2)) is reported as “marked increase”.

Turning to `O=C(Nc1cccc(C(F)(F)F)c1)Nc1cc(Cl)ccc1O` [Compound A, 1-(3-Trifluoromethyl-phenyl)-3-(2-hydroxy-5-chlorophenyl)-urea], the repolarisation current entry on HERG1 channel [2] (HEK293 cells stably expressing HERG1, simulated cardiac action potential, 10 μM (FIG. 1)) is reported as “marked increase”. The “current during the last phase of the cardiac simulating voltage protocol (repolarisation current)” value at HERG1 channel [2] (HEK293 cells, 3-30 μM) is given as “increase”. Further, the “HERG1 current in the first 200 ms of the resting phase” value at HERG1 channel [2] (HEK293 cells, simulated cardiac action potential) is on record as “increased”.

Take `O=C(Nc1ccc(Nc2ccc(Cl)cc2)c(Cl)c1)c1cc([N+](=O)[O-])ccc1O` [Compound 17, N-[3-Chloro-4-(4-chloro-phenylamino)-phenyl]-2-hydroxy-5-nitro-benzamide]: the melting point was > 219 °C (dec.).
